Laboratory results as given in ChEMBL document CHEMBL2177063, “Iridoid glucosides from Nyctanthes arbortristis result in increased reactive oxygen species and cellular redox homeostasis imbalance in Leishmania parasite” (Eur J Med Chem, 2012).
Active and inactive are the calls of the source. The rule behind the calls is not given here.

Assays:
Leishmania donovani [1] = test: Induction of oxidative stress in promastigote form of Leishmania donovani DD8 assessed as increase in ROS level at 5 to 20 uM up to 48 hrs by CM-H2DCFDA-based fluorimetric analysis; assay type: functional, organism-based
Leishmania donovani [2] = test: Antileishmanial activity against amastigote form of Leishmania donovani DD8 infected in mouse J774A1 cells at 100 uM after 48 hrs by ethidium bromide/acridine orange staining-based fluorescence microscopic analysis; assay type: functional, organism-based; conditions: J774.A1
Leishmania donovani [3] = test: Induction of apoptosis in promastigote form of Leishmania donovani DD8 assessed as early apoptotic cells at 20 uM after 24 hrs by FITC-annexinV/PI-based flow cytometric analysis (reference value: 2.61%); assay type: functional
Leishmania donovani [4] = test: Antileishmanial activity against promastigote form of Leishmania donovani DD8 after 48 hrs by MTT assay; assay type: functional, organism-based; conditions: DD8, 48 h
Leishmania donovani [5] = test: Antileishmanial activity against promastigote form of Leishmania donovani DD8 assessed as cell death at 200 uM from 12 to 48 hrs by ethidium bormide/acridine orange staining-based fluorescence microscopic analysis; assay type: functional, organism-based
Leishmania donovani [6] = test: Induction of oxidative stress in amastigote form of Leishmania donovani DD8 assessed as increase in ROS level at 5 to 20 uM up to 48 hrs by CM-H2DCFDA-based fluorimetric analysis; assay type: functional, organism-based
Leishmania donovani [7] = test: Induction of oxidative stress in promastigote form of Leishmania donovani DD8 assessed as increase in ROS level at 20 uM by CM-H2DCFDA-based flow cytometric analysis; assay type: functional, organism-based
[8] = target: Trypanothione reductase (Leishmania donovani) (UniProt P39050); test: Inhibition of Leishmania donovani DD8 promastigote form trypanothione reductase assessed as decrease in reduced thiol level at 3.125 uM after 48 hrs by DTNB-based spectrophotometric analysis relative to control
Trypanothione reductase (Leishmania donovani), sequence (P39050 whole entry): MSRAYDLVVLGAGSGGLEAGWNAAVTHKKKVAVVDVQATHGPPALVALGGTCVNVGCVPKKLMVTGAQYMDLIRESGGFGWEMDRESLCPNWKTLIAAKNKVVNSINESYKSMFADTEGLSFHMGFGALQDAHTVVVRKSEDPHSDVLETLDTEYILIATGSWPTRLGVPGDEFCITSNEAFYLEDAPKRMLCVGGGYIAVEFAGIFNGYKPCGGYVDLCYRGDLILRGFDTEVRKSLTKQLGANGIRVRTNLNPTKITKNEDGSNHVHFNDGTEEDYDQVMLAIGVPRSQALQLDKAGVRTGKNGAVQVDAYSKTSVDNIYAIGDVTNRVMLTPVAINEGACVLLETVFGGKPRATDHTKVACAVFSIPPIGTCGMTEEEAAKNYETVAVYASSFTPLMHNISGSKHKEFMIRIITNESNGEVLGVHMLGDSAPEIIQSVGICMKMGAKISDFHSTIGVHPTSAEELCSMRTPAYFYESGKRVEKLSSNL

[9] = Cytotoxicity against human HEK293 cells assessed as cell viability at 4 uM after 48 hrs by MTT assay relative to control; assay type: cell-based; conditions: read-out: Activity
[10] = target: Trypanothione reductase (Leishmania donovani) (UniProt P39050); test: Inhibition of Leishmania donovani DD8 axenic form trypanothione reductase assessed as decrease in reduced thiol level at 3.125 uM after 12 hrs by DTNB-based spectrophotometric analysis relative to control
[11] = target: Trypanothione reductase (Leishmania donovani) (UniProt P39050); test: Inhibition of Leishmania donovani DD8 promastigote form trypanothione reductase assessed as decrease in reduced thiol level at 3.125 uM after 12 hrs by DTNB-based spectrophotometric analysis relative to control
[12] = target: Trypanothione reductase (Leishmania donovani) (UniProt P39050); test: Inhibition of Leishmania donovani DD8 axenic form trypanothione reductase assessed as decrease in reduced thiol level at 3.125 uM after 48 hrs by DTNB-based spectrophotometric analysis relative to control
Leishmania donovani [13] = test: Induction of apoptosis in promastigote form of Leishmania donovani DD8 assessed as viable cells at 20 uM after 24 hrs by FITC-annexinV/PI-based flow cytometric analysis (reference value: 92.68%); assay type: functional
Leishmania donovani [14] = test: Antileishmanial activity against axenic form of Leishmania donovani DD8 after 48 hrs by MTT assay; assay type: functional, organism-based; conditions: DD8, 48 h
Leishmania donovani [15] = test: Antileishmanial activity against amastigote form of Leishmania donovani DD8 infected in mouse J774A1 cells at 10 uM after 48 hrs by ethidium bromide/acridine orange staining-based fluorescence microscopic analysis; assay type: functional, organism-based; conditions: J774.A1
Leishmania donovani [16] = test: Induction of oxidative stress in axenic form of Leishmania donovani DD8 assessed as increase in ROS level at 20 uM by CM-H2DCFDA-based flow cytometric analysis; assay type: functional, organism-based
[17] = target: Trypanothione reductase (Leishmania donovani) (UniProt P39050); test: Inhibition of Leishmania donovani DD8 promastigote form trypanothione reductase assessed as decrease in reduced thiol level at 100 uM after 12 hrs by DTNB-based spectrophotometric analysis relative to control
[18] = Cytotoxicity against human HEK293 cells assessed as cell viability at 100 uM after 48 hrs by MTT assay relative to control; assay type: cell-based; conditions: read-out: Activity
Leishmania donovani [19] = test: Induction of necrosis in promastigote form of Leishmania donovani DD8 assessed as necrotic cells at 20 uM after 24 hrs by FITC-annexinV/PI-based flow cytometric analysis (reference value: 1.31%); assay type: functional
Leishmania donovani [20] = test: Induction of oxidative stress in promastigote form of Leishmania donovani DD8 assessed as change in cell surface topology at 20 uM by CM-H2DCFDA-based flow cytometric analysis; assay type: functional, organism-based
[21] = target: Trypanothione reductase (Leishmania donovani) (UniProt P39050); test: Inhibition of Leishmania donovani DD8 axenic form trypanothione reductase assessed as decrease in reduced thiol level at 100 uM after 12 hrs by DTNB-based spectrophotometric analysis relative to control
Leishmania donovani [22] = test: Induction of oxidative stress in axenic form of Leishmania donovani DD8 assessed as change in cell surface topology at 20 uM by CM-H2DCFDA-based flow cytometric analysis; assay type: functional, organism-based
[23] = target: Trypanothione reductase (Leishmania donovani) (UniProt P39050); test: Inhibition of Leishmania donovani DD8 axenic form trypanothione reductase assessed as decrease in reduced thiol level at 100 uM after 48 hrs by DTNB-based spectrophotometric analysis relative to control
J774.A1 = test: Cytotoxicity against mouse J774A1 cells at 1 to 100 uM after 48 hrs by MTT assay; assay type: cell-based; conditions: j774.a1, 48 h
[24] = target: Trypanothione reductase (Leishmania donovani) (UniProt P39050); test: Inhibition of Leishmania donovani DD8 promastigote form trypanothione reductase assessed as decrease in reduced thiol level at 100 uM after 48 hrs by DTNB-based spectrophotometric analysis relative to control
Leishmania donovani [25] = test: Induction of apoptosis in promastigote form of Leishmania donovani DD8 assessed as late apoptotic cells at 20 uM after 24 hrs by FITC-annexinV/PI-based flow cytometric analysis (reference value: 3.4%); assay type: functional

| Compound | Activity (Leishmania donovani [1]) | Activity (Leishmania donovani [2]) | Activity (Leishmania donovani [3]) [%] | IC50 (Leishmania donovani [4]) [µM] | Activity (Leishmania donovani [5]) | Activity (Leishmania donovani [6]) | Activity (Leishmania donovani [7]) | inhibition [8] [%] | viability at 48 h, 4 µM [9] [%] | inhibition [10] [%] | inhibition [11] [%] | inhibition [12] [%] | Activity (Leishmania donovani [13]) [%] | IC50 (Leishmania donovani [14]) [µM] | Activity (Leishmania donovani [15]) | Activity (Leishmania donovani [16]) | inhibition [17] [%] | viability at 48 h, 100 µM [18] [%] | Activity (Leishmania donovani [19]) [%] | Activity (Leishmania donovani [20]) | further results |
| --- | --- | --- | --- | --- | --- | --- | --- | --- | --- | --- | --- | --- | --- | --- | --- | --- | --- | --- | --- | --- | --- |
| COC(=O)C1=CO[C@@H](O[C@@H]2O[C@H](CO)[C@@H](O)[C@H](O)[C@H]2O)[C@@H]2[C@@H](C)[C@@H](OC(=O)/C=C/c3ccc(O)cc3)[C@@H](O)[C@H]12 [ARBORTRISTOSIDE C] | Active | Active | 36.59 | 5.02 | Active | Active | Active | 78.9 | 89.6 | 97.7 | 95.3 | 82.8 | 50.9 | 9 | Active | Active | 62.7 | 48.6 | 10 | Active | inhibition [21]: 67.8%; Activity (Leishmania donovani [22]): Active; inhibition [23]: 51.7%; Activity (J774.A1): Non-toxic; inhibition [24]: 46.9%; Activity (Leishmania donovani [25]): 2.51% |
| COC(=O)C1=CO[C@@H](O[C@@H]2O[C@H](CO)[C@@H](O)[C@H](O)[C@H]2O)[C@@H]2[C@@H](CO)[C@@H](OC(=O)/C=C/c3ccc(O)c(O)c3)[C@@H](O)[C@H]12 [ARBORTRISTOSIDE B] | Active | Active | 31.04 | 3.5 | Active | Active | Active | 67.9 | 93.6 | 96.9 | 92.6 | 77.5 | 52.48 | 7.63 | Active | Active | 63.6 | 54.8 | 13.52 | Active | inhibition [21]: 67.9%; Activity (Leishmania donovani [22]): Active; inhibition [23]: 46.9%; Activity (J774.A1): Non-toxic; inhibition [24]: 41.9%; Activity (Leishmania donovani [25]): 2.96% |
| COC(=O)C1=CO[C@@H](O[C@@H]2O[C@H](CO)[C@@H](O)[C@H](O)[C@H]2O)[C@@H]2[C@@H](C)[C@@H](OC(=O)/C=C/c3ccc(OC)cc3)[C@@H](O)[C@H]12 [ARBORTRISTOSIDE A] | Active | Active | 26.3 | 3.26 | Active | Active | Active | 63.7 | 95.5 | 97.9 | 92.5 | 73.4 | 61.24 | 7.26 | Active | Active | 60.1 | 71.2 | 10.33 | Active | inhibition [21]: 65.8%; Activity (Leishmania donovani [22]): Active; inhibition [23]: 41.9%; Activity (J774.A1): Non-toxic; inhibition [24]: 33.8%; Activity (Leishmania donovani [25]): 2.13% |
